Reference: US8901313B2, “6,5-heterocyclic propargylic alcohol compounds and uses therefor” (Genentech, Inc., priority 2011, dated 2014)

Experiments:
[1] = test system: human embryonic kidney 293 cells; experiment: 293-NIK TK Renilla Luciferase reporter (general measure of cell viability); type: cell-based; details: HEK293, 293 cells, constitutive Renilla luciferase, 24 hours, read-out: inhibitory value (IC50) for 293-NIK TK Renilla Luciferase activity
Description: (§1) (1) The first assay was used to profile whether a test compound can inhibit the NF-kB signally through NIK inhibition without affecting cell viability. In this assay, human embryonic kidney 293 cells was stably transfected with a tetracycline-inducible NIK DNA construct containing a cytomegalovirus promoter plus two reporter DNA constructs. One reporter encoded firefly luciferase under the control of three repeats of an NF-kB response element from the ELAM-1 gene and reflects the level of NIK activity in the cells, whereas the other reporter constitutively expressed Renilla luciferase under the control of the herpes simplex virus thymidine kinase promoter and served as a general measure of cell viability. Cells were incubated with different concentrations of compounds (0.2% DMSO final) in medium containing 1 ug/mL doxycycline and 10% tet-system approved fetal bovine serum (Clontech) for 24 hours, after which the reporters' signals were detected using the Dual Glo luciferase detection system (Promega) according to the vendor's protocol. The compounds listed in Table 1 have the corresponding inhibitory value (IC50 in micromolar) for 293-NIK NF-kB-Luciferase activity (values for compounds are presented in the same order as found in Table 1): na, 0.059, na, na, na, 0.105, 0.027, na, 20, 1.2, na, 1.8, 0.0231, 0.879, 0.0361, 0.582, na, 0.142, na, 0.403, 0.059, 0.0331, na, na, 0.0573, 1.5, na, na, 0.0722, na, na, 0.589, 12.7, 3.7, 14.9, na, 0.707, 1, 0.0311, 0.332, 0.309, 0.0142, 0.051, 2.8, 0.129, na, na, 1.5, na, na, na, 1.3, 0.062, 20, 0.31, 0.104, 0.091, 0.037, 0.085, 0.279, na, 0.305, 0.064, 0.332, 0.133, 0.168, 0.217, 0.553, na and na.
The compounds in listed in Table 1 have the corresponding inhibitory value (IC50 in micromolar) for 293-NIK TK Renilla Luciferase activity: (values for compounds are presented in the same order as found in Table 1): 6.4, 3.6, 20, na, 1.6, 9.3, 18.5, na, na, 2.6, na, na, na, na, na, na, na, na, na, na, na, na, na, na, na, na, na, na, na, na, na, na, na, na, na, na, na, na, na, na, na, na, na, na, na, na, na, >20, na, na, na, 20, >20, 17, 1.3, 15.6, 0.967, 2.7, 11.2, 5.1, na, 20, 20, 20, 20, 20, 17.6, 20, na and na.

[2] = target: T1, nuclear factor-kappa B (NF-kB)-inducing kinase (NIK) (Homo sapiens, UniProt Q99558); experiment: NIK Enzyme Inhibition Assay (Transcreener ADP assay); type: biochemical; details: purified NIK 0.2-1 nM, 10 uM ATP, fluorescence polarization, Morrison's quadratic equation; read-out: inhibitory value (Ki) for NIK
T1 construct: made in house; host or cells: baculovirus-infected insect cells

[3] = test system: NF-kB signaling through NIK in human embryonic kidney 293 cells; experiment: 293-NIK NF-kB-Luciferase reporter assay; type: cell-based; details: HEK293, 293 cells with tetracycline-inducible NIK, 1 ug/mL doxycycline, 24 hours, read-out: inhibitory value (IC50) for 293-NIK NF-kB-Luciferase activity
Description: as §1

T1 sequence (Q99558 whole entry): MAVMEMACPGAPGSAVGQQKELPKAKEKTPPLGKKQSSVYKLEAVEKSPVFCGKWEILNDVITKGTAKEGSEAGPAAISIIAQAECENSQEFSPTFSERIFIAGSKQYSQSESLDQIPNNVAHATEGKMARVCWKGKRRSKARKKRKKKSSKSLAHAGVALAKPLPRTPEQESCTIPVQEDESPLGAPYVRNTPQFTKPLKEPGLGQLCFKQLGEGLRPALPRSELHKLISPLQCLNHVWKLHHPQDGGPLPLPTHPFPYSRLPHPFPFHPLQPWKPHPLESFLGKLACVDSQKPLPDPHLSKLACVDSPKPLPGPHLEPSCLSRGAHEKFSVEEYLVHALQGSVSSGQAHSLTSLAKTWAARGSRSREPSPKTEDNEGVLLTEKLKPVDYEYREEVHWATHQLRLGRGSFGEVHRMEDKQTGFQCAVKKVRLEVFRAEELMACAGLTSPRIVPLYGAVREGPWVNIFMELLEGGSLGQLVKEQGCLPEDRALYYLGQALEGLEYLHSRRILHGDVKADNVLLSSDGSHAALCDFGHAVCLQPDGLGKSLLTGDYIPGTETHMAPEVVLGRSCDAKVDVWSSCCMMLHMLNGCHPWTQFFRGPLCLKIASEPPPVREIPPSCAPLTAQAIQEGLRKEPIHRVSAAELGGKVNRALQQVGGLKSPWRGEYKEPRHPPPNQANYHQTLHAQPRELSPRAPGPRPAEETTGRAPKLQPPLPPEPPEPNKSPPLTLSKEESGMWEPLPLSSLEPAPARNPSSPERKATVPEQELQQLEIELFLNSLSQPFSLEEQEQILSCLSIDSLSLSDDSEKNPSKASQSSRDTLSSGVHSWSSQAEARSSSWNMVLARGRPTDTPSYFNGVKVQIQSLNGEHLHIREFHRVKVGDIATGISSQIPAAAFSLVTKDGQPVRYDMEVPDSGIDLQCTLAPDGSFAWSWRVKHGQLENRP

Row | SMILES | Ki [2] [nM] | IC50 [1] [nM] | IC50 [3] [nM]
1 | N#Cc1ccc2cnn(-c3ccnc(N)n3)c2c1 [Example T1-3, 1-(2-aminopyrimidin-4-yl)-1H-indazole-6-carbonitrile] | – | ≥ 20000 | –
2 | Nc1nccc(-n2ncc3ccc(C#CC4(O)CCCC4)cc32)n1 [Example T1-5, 1-((1-(2-aminopyrimidin-4-yl)-1H-indazol-6-yl)ethynyl) cyclopentanol] | – | 1600 | –
3 | CC(C)(O)C#Cc1ccc2ncn(-c3ccnc(N)n3)c2c1 [Example T1-10, 4-(1-(2-aminopyrimidin-4-yl)-1H-benzo[d]imidazol-6-yl)-2-methylbut-3-yn-2-ol] | 14.3 | 2600 | 1200
4 | Cc1cc(C(C)(O)C#Cc2ccc3c(C)nn(-c4ccnc(N)n4)c3c2)on1 (centres unmarked) [Example T1-48, 4-(1-(2-aminopyrimidin-4-yl)-3-methyl-1H-indazol-6-yl)-2-(3-methylisoxazol-5-yl)but-3-yn-2-ol] | 13 | > 20000 | 1500

Now from value to compound, other results behind:

Row | Ki [2] [nM] | SMILES | IC50 [1] [nM] | IC50 [3] [nM]
5 | 2.65 | Cc1cc(C(C)(O)C#Cc2ccc3c(C(=O)N4CCOCC4)nn(-c4ccnc(N)n4)c3c2)no1 (centres unmarked) [Example T1-65, (1-(2-aminopyrimidin-4-yl)-6-(3-hydroxy-3-(5-methyl-isoxazol-3-yl)but-1-ynyl)-1H-indazol-3-yl)(morpholino) methanone] | ≥ 20000 | 133
6 | 1.27 | Cc1cc(C(C)(O)C#Cc2ccc3c(C(=O)N4CCCC4)nn(-c4ccnc(N)n4)c3c2)no1 (centres unmarked) [Example T1-66, (1-(2-aminopyrimidin-4-yl)-6-(3-hydroxy-3-(5-methyl-isoxazol-3-yl)but-1-ynyl)-1H-indazol-3-yl)(pyrrolidin-1-yl) methanone] | ≥ 20000 | 168
7 | 4 | Cc1nn(-c2ccnc(N)n2)c2cc(C#CC(C)(O)c3ncccn3)ccc12 (centres unmarked) [Example T1-67, 4-(1-(2-aminopyrimidin-4-yl)-3-methyl-1H-indazol-6-yl)-2-(pyrimidin-2-yl)but-3-yn-2-ol] | 17600 | 217
8 | 2.7 | COCc1nc2ccc(C#C[C@@](C)(O)c3nccs3)cc2n1-c1ncnc(N)n1 [Example T1-68, (R)-4-(1-(4-amino-1,3,5-triazin-2-yl)-2-(methoxymethyl)-1H-benzo[d]imidazol-6-yl)-2-(thiazol-2-yl)but-3-yn-2-ol] | ≥ 20000 | 553
